Measured values published in ChEMBL document CHEMBL1201862, “PubChem BioAssay data set” (2004).
One block for each compound: values may come before it. Calls of active or inactive are those of the source.

Columns and labels:
[1] = Luminescence Cell-Based Dose Retest to Confirm Inhibitors of Cancer Stem Cells. [Related pubchem assays (depositor defined):AID2717, AID2721]; type: functional; settings: Homo sapiens
[2] = HEp-2 cell cytotoxicity, dose response, cytotoxicity control for RSV inhibitor project, HTS (AID 2410); type: functional; settings: human respiratory syncytial virus
H9c2 = test: cells; type: functional, cell-based; settings: Rattus norvegicus, H9c2, Myocardium;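 note: confirmatory concentration-response retest of ultra-high-throughput screening hits for modulation of myocardial damage; cell death induced by hydrogen peroxide oxidative stress; compound pretreatment for 60 min then peroxide exposure for 2 h; potency is for protecting the cells against peroxide damage rather than for killing them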
[3] = target: Glucose-6-phosphate 1-dehydrogenase (Homo sapiens, UniProt P11413); test: human G6PD enzyme inhibitors, dose response, selectivity assay for P. falciparum G6PD inhibitor project, biochemical, fluorescence (AID 504792); type: functional
Sequence of Glucose-6-phosphate 1-dehydrogenase (P11413 whole entry): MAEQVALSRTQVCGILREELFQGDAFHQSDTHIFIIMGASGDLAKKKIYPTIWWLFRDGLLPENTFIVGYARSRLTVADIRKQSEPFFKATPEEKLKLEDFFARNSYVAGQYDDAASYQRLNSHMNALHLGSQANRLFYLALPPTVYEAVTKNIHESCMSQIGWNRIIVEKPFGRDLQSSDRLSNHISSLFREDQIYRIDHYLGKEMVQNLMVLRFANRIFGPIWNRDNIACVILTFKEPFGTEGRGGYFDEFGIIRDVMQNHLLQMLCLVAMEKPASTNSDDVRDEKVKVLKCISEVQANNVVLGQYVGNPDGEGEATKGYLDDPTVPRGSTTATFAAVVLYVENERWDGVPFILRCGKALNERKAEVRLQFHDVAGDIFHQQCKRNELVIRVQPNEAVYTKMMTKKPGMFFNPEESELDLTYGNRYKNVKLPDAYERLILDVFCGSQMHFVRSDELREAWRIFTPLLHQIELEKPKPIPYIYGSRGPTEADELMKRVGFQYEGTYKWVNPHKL

[4] = target: DNA dC->dU-editing enzyme APOBEC-3G (Homo sapiens, UniProt Q9HC16); test: Dose Response confirmation of small molecule APOBEC3G DNA Deaminase Inhibitors via a fluorescence-based single-stranded DNA deaminase assay. [Related pubchem assays (depositor defined):AID493012, AID493028]; type: functional
Sequence of DNA dC->dU-editing enzyme APOBEC-3G (Q9HC16 whole entry): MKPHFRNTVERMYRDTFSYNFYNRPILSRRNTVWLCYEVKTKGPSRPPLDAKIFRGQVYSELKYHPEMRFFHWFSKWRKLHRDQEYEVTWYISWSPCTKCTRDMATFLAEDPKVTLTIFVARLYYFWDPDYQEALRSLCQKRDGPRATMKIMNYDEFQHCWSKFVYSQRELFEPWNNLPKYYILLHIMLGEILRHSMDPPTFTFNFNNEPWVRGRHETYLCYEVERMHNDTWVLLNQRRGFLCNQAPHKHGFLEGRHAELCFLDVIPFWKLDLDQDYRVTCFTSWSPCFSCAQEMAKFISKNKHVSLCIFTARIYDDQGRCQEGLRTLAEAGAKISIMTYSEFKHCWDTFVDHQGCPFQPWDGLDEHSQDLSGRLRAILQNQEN

[5] = intracellular Trypanosoma cruzi inhibitors in host cells – cell-based, plate reader, cherry-pick samples, set 3, dose response (AID 651818); type: functional;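 note: compounds incubated with infected cells for about four days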
[6] = target: Induced myeloid leukemia cell differentiation protein Mcl-1 (Homo sapiens, UniProt Q07820); type: functional
BJ [7] = test: cells; type: functional, cell-based; settings: Homo sapiens
BJ [8] = test: cytotoxicity toward BJ-TERT fibroblasts, dose response, cell-based, RAS-independent, luminescence (AID 1933); type: functional; settings: Homo sapiens
[9] = cytotoxicity toward DRD oncogenic fibroblasts, dose response, cell-based, non-viral oncogenic, luminescence (AID 1934); type: functional; settings: Homo sapiens
BJ [10] = test: cytotoxicity toward BJ-TERT-LT-ST fibroblasts, dose response, cell-based, RAS-independent, luminescence (AID 1935); type: functional; settings: Homo sapiens;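 note: BJ fibroblasts immortalized with TERT plus LT and ST oncogenes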
[11] = target: Peroxisome proliferator-activated receptor gamma/Nuclear receptor coactivator 2 (Homo sapiens, UniProt P37231); test: (§1) TR-FRET dose response biochemical High Throughput Screening assay for agonists of the steroid receptor coactivator 2 (SRC-2) recruitment by the peroxisome proliferator-activated receptor gamma (PPAR gamma): non-selective agonists. [Related pubchem assays: 1297, 1032 ]; type: functional
Sequence of Peroxisome proliferator-activated receptor gamma/Nuclear receptor coactivator 2 (P37231 whole entry): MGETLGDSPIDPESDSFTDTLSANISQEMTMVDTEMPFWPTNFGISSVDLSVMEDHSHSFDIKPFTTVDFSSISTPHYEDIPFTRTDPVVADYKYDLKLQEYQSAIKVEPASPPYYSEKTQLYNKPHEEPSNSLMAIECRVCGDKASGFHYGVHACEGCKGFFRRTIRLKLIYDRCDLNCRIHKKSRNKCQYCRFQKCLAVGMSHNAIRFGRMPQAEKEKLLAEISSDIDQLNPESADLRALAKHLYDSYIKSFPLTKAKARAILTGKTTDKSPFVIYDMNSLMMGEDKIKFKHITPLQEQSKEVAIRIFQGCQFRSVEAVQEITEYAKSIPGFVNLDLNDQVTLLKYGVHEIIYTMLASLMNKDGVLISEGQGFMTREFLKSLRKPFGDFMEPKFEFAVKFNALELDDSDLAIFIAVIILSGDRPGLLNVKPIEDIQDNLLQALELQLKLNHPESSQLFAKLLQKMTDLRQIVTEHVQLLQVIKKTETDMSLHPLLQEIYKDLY
Sequence of Peroxisome proliferator-activated receptor gamma/Nuclear receptor coactivator 2 (Q15596 whole entry, further chain): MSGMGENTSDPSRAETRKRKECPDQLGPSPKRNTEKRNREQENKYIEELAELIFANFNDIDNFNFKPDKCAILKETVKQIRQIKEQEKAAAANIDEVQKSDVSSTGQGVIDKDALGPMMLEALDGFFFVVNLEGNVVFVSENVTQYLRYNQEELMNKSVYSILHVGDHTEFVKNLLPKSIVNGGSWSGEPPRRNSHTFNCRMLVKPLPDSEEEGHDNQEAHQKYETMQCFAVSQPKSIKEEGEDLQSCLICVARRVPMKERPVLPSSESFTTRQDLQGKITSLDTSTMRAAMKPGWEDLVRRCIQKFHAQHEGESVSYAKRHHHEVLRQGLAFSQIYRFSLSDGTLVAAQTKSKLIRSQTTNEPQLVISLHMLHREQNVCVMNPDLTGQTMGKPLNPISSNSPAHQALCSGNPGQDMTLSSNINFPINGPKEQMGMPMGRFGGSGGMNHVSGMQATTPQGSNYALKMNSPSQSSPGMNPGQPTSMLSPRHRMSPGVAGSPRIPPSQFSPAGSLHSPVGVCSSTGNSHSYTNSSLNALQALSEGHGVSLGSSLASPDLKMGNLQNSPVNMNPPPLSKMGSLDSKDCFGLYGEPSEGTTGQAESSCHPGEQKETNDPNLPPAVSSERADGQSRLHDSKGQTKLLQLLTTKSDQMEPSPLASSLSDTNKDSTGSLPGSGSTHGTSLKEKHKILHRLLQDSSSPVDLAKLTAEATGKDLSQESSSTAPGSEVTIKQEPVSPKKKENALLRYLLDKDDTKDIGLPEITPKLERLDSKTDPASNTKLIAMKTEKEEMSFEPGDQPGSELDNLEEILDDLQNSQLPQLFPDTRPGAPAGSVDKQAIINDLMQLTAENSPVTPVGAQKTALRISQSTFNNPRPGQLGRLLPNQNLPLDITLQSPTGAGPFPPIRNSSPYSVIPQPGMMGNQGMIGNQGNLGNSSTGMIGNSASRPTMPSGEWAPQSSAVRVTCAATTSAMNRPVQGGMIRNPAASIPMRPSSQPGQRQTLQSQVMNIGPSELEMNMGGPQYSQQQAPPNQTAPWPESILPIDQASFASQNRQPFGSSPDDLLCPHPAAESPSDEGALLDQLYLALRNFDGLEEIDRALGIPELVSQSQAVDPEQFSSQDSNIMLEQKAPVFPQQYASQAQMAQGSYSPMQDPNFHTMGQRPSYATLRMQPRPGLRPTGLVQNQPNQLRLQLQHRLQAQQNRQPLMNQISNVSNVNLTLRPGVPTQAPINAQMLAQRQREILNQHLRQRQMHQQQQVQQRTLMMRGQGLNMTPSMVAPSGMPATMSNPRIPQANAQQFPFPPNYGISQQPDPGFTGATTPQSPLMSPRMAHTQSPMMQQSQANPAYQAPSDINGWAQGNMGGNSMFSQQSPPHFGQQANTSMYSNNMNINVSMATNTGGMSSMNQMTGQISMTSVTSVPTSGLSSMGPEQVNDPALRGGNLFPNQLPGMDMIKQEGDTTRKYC

[12] = target: Peroxisome proliferator-activated receptor gamma/Nuclear receptor coactivator 3 (Homo sapiens, UniProt P37231); test: as §1, with “3 (SRC-3)” for “2 (SRC-2)”, “1301 (Confirmation screen.), 1048 (Primary screen.)]” for “1297, 1032 ]”; type: functional
[13] = target: T1, Rac GTPase-activating protein 1 (Homo sapiens, UniProt Q9H0H5); test: MgcRacGAP GTPase-activating activity inhibitors, confirmation, biochemical, ADP Hunter fluorescence, primary and confirmatory (AID 624330); type: functional
T1 sequence (Q9H0H5 whole entry): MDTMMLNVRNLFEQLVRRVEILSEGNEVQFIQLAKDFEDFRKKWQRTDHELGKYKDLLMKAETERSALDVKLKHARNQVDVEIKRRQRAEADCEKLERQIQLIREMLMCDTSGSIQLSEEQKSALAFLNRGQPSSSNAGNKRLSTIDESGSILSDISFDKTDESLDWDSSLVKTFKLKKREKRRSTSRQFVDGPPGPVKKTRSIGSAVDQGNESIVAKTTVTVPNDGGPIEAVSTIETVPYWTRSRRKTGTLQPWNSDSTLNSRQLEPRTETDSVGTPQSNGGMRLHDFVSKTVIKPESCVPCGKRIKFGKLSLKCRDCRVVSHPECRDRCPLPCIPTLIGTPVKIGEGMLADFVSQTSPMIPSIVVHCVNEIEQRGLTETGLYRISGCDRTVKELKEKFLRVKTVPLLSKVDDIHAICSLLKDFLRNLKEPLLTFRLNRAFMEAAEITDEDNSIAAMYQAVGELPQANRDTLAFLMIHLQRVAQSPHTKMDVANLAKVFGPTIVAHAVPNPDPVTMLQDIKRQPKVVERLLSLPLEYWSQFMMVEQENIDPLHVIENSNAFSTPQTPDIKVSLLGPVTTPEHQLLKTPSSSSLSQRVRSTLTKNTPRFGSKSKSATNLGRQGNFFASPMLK

[14] = target: Peroxisome proliferator-activated receptor gamma/Nuclear receptor coactivator 1 (Homo sapiens, UniProt P37231); test: as §1, with “1 (SRC-1)” for “2 (SRC-2)”, “assays (depositor defined):AID1300, AID1808, AID504735, AID631]” for “assays: 1297, 1032 ]”; type: protein assay
Sequence of Peroxisome proliferator-activated receptor gamma/Nuclear receptor coactivator 1 (P37231 whole entry): as the sequence (P37231 whole entry) above
Sequence of Peroxisome proliferator-activated receptor gamma/Nuclear receptor coactivator 1 (Q15788 whole entry, further chain): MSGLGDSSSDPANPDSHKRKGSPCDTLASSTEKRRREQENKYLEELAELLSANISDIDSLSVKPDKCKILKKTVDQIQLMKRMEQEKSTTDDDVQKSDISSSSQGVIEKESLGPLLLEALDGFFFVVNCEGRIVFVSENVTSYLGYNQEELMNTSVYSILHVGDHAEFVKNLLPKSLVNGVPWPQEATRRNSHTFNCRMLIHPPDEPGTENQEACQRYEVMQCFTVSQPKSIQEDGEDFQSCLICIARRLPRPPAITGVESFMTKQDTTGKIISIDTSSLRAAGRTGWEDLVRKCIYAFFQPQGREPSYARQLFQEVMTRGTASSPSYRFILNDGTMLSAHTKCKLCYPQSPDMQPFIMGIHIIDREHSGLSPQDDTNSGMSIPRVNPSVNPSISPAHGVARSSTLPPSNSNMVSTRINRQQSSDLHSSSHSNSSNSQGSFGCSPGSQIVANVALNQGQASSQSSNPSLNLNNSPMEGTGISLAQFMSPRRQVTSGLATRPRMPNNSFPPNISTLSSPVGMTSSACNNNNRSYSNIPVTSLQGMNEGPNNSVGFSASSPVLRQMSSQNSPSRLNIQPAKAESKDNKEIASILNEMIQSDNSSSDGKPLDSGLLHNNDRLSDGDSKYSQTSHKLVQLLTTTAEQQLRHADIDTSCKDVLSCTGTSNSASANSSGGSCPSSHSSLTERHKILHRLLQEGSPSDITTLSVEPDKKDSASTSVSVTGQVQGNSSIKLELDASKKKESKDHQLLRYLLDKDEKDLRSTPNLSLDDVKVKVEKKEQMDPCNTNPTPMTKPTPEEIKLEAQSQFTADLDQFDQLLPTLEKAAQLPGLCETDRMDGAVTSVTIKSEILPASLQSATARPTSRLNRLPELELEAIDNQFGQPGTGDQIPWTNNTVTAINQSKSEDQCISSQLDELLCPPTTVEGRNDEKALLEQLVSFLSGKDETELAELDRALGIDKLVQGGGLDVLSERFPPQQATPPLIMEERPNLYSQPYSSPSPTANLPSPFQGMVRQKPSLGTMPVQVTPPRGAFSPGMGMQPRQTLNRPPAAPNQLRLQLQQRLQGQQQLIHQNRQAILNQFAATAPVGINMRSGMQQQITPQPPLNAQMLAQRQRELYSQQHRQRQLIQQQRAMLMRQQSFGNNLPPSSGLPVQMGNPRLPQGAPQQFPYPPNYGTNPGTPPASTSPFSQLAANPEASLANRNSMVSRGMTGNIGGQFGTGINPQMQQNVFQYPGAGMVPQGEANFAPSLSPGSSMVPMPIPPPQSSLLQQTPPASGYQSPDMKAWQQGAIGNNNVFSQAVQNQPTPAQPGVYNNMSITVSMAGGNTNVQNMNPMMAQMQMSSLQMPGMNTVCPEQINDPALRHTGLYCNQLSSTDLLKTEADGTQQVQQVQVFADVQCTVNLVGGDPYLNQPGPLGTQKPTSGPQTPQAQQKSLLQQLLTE

Structure (SMILES): Cc1cccc2sc(NC(=O)C3c4ccccc4Oc4ccccc43)nc12
- AC50 [1]: 2.83 µM (active)
- CC50 [2]: 15.1 µM (active)

Structure (SMILES): O=C(COC(=O)CCc1nc(O)c2ccccc2n1)NCc1ccc(F)cc1
- IC50 (H9c2): > 79 µM (inactive)

Structure (SMILES): O=S(=O)(NCc1csc(-c2ccccc2)n1)c1ccc(Cl)s1
- IC50 [3]: > 80 µM (inactive)

Structure (SMILES): CCCCCCn1c(SCC(=O)OC)nc2c1c(=O)[nH]c(=O)n2C
- IC50 [4]: 51.6 µM (active)

- IC50 [3]: 63.8 µM (inactive)
Structure (SMILES): Nc1nc(O)nc(O)c1N=Cc1ccccc1

Structure (SMILES): CCN(CC(=O)NC1CCCCC1)S(=O)(=O)c1ccc(Cl)cc1
- AC50 [1]: > 195 µM (inactive)

- IC50 [3]: > 80 µM (inactive)
Structure (SMILES): CCN1CCCC1CNC(=O)c1ccc2c(c1)NC(=O)/C(=C\c1ccccc1Cl)S2 (configuration not stated)

- IC50 [3]: 55.2 µM (inactive)
Structure (SMILES): O=C(CCSCCC(=O)NN=Cc1ccccc1)NN=Cc1ccccc1

Structure (SMILES): C[C@H](CO)N1C[C@H](C)[C@H](CN(C)Cc2ccc(C(=O)Nc3ccccc3N)cc2)Oc2ccc(NC(=O)C3CCCCC3)cc2CC1=O
- AC50 [5]: 3.41 µM (active)

Structure (SMILES): C[C@@H]1CN([C@@H](C)CO)C(=O)c2cccc(NC(=O)NC3CCCCC3)c2O[C@H]1CN(C)Cc1ccc(C(F)(F)F)cc1
- AC50 [5]: 2.86 µM (active)

Structure (SMILES): C[C@H]1CN([C@@H](C)CO)C(=O)c2cc(NC(=O)Nc3ccc4c(c3)OCO4)ccc2O[C@@H]1CN(C)Cc1ccc(Oc2ccccc2)cc1
- AC50 [5]: 4.01 µM (active)

Structure (SMILES): CC(C)NC(=O)Nc1ccc2c(c1)CC(=O)N([C@H](C)CO)C[C@H](C)[C@H](CN(C)Cc1ccc(C(=O)Nc3ccccc3N)cc1)O2
- AC50 [5]: 4 µM (active)

Structure (SMILES): COc1ccc(S(=O)(=O)Nc2ccc3c(c2)CC(=O)N([C@H](C)CO)C[C@@H](C)[C@H](CN(C)Cc2ccc4c(c2)OCO4)O3)cc1
- AC50 [5]: 5.51 µM (active)

Structure (SMILES): C[C@H](CO)N1C[C@H](C)[C@H](CN(C)Cc2ccc3c(c2)OCO3)Oc2ccc(NC(=O)NC3CCCCC3)cc2C1=O
- AC50 [5]: 1.82 µM (active)

Structure (SMILES): C[C@H]1CN([C@@H](C)CO)C(=O)c2cccc(NC(=O)Nc3ccccc3)c2O[C@@H]1CN(C)Cc1ccc(C(=O)Nc2ccccc2N)cc1
- AC50 [5]: 1.54 µM (active)

Structure (SMILES): C[C@H](CO)N1C[C@H](C)[C@H](CN(C)Cc2ccc(C(=O)Nc3ccccc3N)cc2)Oc2c(NC(=O)Nc3ccc4c(c3)OCO4)cccc2C1=O
- AC50 [5]: 5.97 µM (active)

- IC50 [6]: 4.37 µM (not active)
Structure (SMILES): CCN1C(=O)C(C)S/C1=N\S(=O)(=O)c1ccc(F)cc1 (configuration not stated)

Structure (SMILES): Cc1ccc(NC(=S)N/N=C/c2c(Cl)cccc2Cl)c(C)c1
- EC50 (BJ [7]): 3.48 µM (inconclusive)
- EC50 (BJ [8]): 2.66 µM (active)
- EC50 [9]: 2.58 µM (active)
- AC50 [1]: 0.368 µM (active)
- EC50 (BJ [10]): 3.99 µM (inconclusive)

- EC50 [11]: 19.4 µM (not active)
- EC50 [12]: > 79.4 µM (not active)
- IC50 [13]: 11.2 µM (active)
- EC50 [14]: 27.9 µM (inactive)
Structure (SMILES): Cc1ccc(Cl)cc1-c1ccc(/C=N/c2ccc(N3CCOCC3)cc2)o1
